Assay results from patent US20130059859A1, “PREDICTIVE BIOMARKERS FOR PI3K/AKT KINASE PATHWAY INHIBITOR EFFICACY” (GENENTECH, INC., priority 2010, published 2013).

Key:
FOXO3a = FOXO3a immunofluorescence localization (cytoplasm-to-nucleus translocation) assay; format: cell-based
Method: Tissue culture cells are plated in 96 well culture plates in culture medium with 10% (full) serum. 24 hours later, cells are dosed with 1 uM of indicated drug for 6 hours at which point cells are directly fixed in 4% formaldehyde in protein-free phosphate-buffered saline (PBS) for 20 min at 37° C. Plates are washed and then cells permeabilized by a 10 min incubation in ice cold methanol. Plates are washed to remove methanol and incubated with anti-FOXO3a antibody (Cell Signaling Technology, catalog #2497, clone 75D8) in antibody dilution buffer (1% BSA, 0.3% Triton X-100 in PBS) at a 1:20 dilution of primary antibody, along with Hoechst nuclear stain (1:10,000 dilution). Cells are incubated overnight at 4° C. Plates are washed to remove primary antibody and then incubated with secondary antibody, goat anti-rabbit conjugated to Alexa-flour 488 dye (Invitrogen) for 1 hr at ambient temperature in the dark. Plates are washed with PBS, sealed with black plate sealer and analyzed on the Cellomics HCS ArrayScan Imager using the Cytoplasm-to-Nucleus translocation bioapplication (Thermo Scientific).

breast cancer cell lines = conditions: panel of breast cancer cell lines; Hoeflich et al 2009; cited from earlier work
[1] = system: PTEN null breast cancer cell lines; experiment: Cell line sensitivity to AKT inhibitor (IC50); format: cell-based
[2] = PI3K/AKT inhibitor resistant cell lines, FIG. 8
[3] = cell lines sensitive to PI3K/AKT inhibitors, FIG. 7
[4] = resistant lines with PI3K/AKT activation (MB-468 with PTEN loss), FIG. 8

Row | SMILES | FOXO3a localization upon treatment (FOXO3a; [2]) | FOXO3a localization upon treatment (FOXO3a; cell lines resistant to GDC-0941, FIG. 10B) | FOXO3a localization upon treatment (FOXO3a; cell lines sensitive to GDC-0941, FIG. 10A) | FOXO3a localization upon treatment (FOXO3a; [3]) | FOXO3a localization upon treatment (FOXO3a; [4]) | FOXO3a localization upon treatment (FOXO3a; breast cancer cell lines, FIGS. 11A-C) | activity at the concentration used (breast cancer cell lines) | FOXO3a localization post-treatment (FOXO3a; BT474 cells, FIG. 2B) | sensitivity of cell line to AKT inhibitor ([1]; MDA-MB-468, cell line with PTEN loss) | IC50 ([1]; resistant cell lines with PTEN null status, FIG. 5) [µM]
1 | CS(=O)(=O)N1CCN(Cc2cc3nc(-c4cccc5[nH]ncc45)nc(N4CCOCC4)c3s2)CC1 [GDC-0941, 2-(1H-Indazol-4-yl)-6-(4-methanesulfonyl-piperazin-1-ylmethyl)-4-morpholin-4-yl-thieno[3,2-d]pyrimidine] | remains nuclear | remains nuclear | relocalizes from cytoplasm to nucleus | translocated from cytoplasm to nucleus | more complete relocalization to nucleus | – | – | – | – | –
2 | O=C(NOC[C@H](O)CO)c1ccc(F)c(F)c1Nc1ccc(I)cc1F [PD901, reference compound] | – | – | – | – | – | unchanged | active | – | – | –
3 | CC(C)NC[C@@H](C(=O)N1CCN(c2ncnc3c2[C@H](C)C[C@H]3O)CC1)c1ccc(Cl)cc1 [GDC-0068, (S)-2-(4-chlorophenyl)-1-(4-((5R,7R)-7-hydroxy-5-methyl-6,7-dihydro-5H-cyclopenta[d]pyrimidin-4-yl)piperazin-1-yl)-3-(isopropylamino)propan-1-one] | remains nuclear | – | – | translocated from cytoplasm to nucleus | more complete relocalization to nucleus | – | – | translocated to the nucleus | resistant | > 20
